Results taken from patent publication US6627749B1 (University of Iowa Research Foundation, priority 1999, dated 2003).
≈ marks a conversion by molar mass, not a printed value.

How the values were obtained:
[1] = Stability of CPT standard solutions (HPLC); assay type: physicochemical
Method: The lactone and carboxylate forms of CPT were analyzed by HPLC using a fully-automated Shimadzu LC-10 system, equipped with a fluorescence detector, a Supelco's C-18 discovery column (15 cm×4.6 mm, 5 am Supelco Park, Bellefonte, Pa.) and a guard column. The detector was set at an excitation wavelength of 370 nm and an emission wavelength of 435 nm. The mobile phase consisted of a 73.27 (v/v) mixture of triethylamine-acetate buffer (0.1% triethylamine, adjusted with glacial acetic acid to pH 5.5) and acetonitrile. A flow rate of 1 ml/min and an injection volume of 20 μl were used in the analysis. To avoid carryover between successive injections, the injector was washed thoroughly with methanol. The standard solutions of CPT-lactone and CPT-carboxylate were made by dilution of the CPT stock solution in dimethylsulfoxide (DMSO) with 0.02M HC1 and 0.02M NaOH solutions, respectively. The analysis of the CPT-lactone was performed immediately, whereas that of CPT-carboxylate 30 min. after making the solution. Standard solutions of CPT-lactone and CPT-carboxylate were stable for two weeks at 4° C. and for 24 hours at room temperature.

[2] = test system: human-derived lymphoid RPMI-8402 leukemia cells; experiment: Cytotoxicity, inhibition of DNA synthesis (3H-thymidine); assay type: cell-based; conditions: lymphoid RPMI-8402 cells
Method: (§1) The cytotoxicity of free CPT and OC—(COOH 20%)/CPT microspheres was evaluated against human-derived lymphoid RPMI-8402 (FIG. 7) and myeloid THP-1 leukemia cell lines (see FIG. 6). […] The cells were diluted to 1×10^6 cells/ml in RPMI 1640 media, supplemented with 1% pen/strep, 1% glutamine, and 10% fetal calf serum, and plated in triplicate at the 2×10^5 cells/well in a 96 well plate. CPT or OC—(COOH 20%)/CPT microspheres were then added, at the equal concentrations, to the wells and the cells were incubated for 20 hours at 37° C. and in 5% CO2. Radiolabeled thymidine (0.04 μci/well) was added to each well at 20 hours and 24 hours. The cells were harvested onto a Reeves Angel 934 AH filter using a Brandel automated cell harvester. Radiolabeled DNA was then measured as disintegration per minute (dpm) by scintillation spectroscopy.

[3] = test system: human-derived myeloid THP-1 leukemia cells; experiment: as above; assay type: cell-based; conditions: myeloid THP-1 cells
Method: as §1

[4] = In-vitro dissolution of CPT in pH 7.4 phosphate buffer (dialysis bag); assay type: physicochemical; conditions: 0.02% Tween 80, 37° C., sink conditions
Method: The dissolution of CPT from microspheres and physical mixtures and that of free CPT was evaluated in pH 7.4 phosphate buffer solution (composition: 137 mM NaCl, 3 mM KC1, 8 mM Na2HPO4, 1 mM KH2PO4), containing 0.02% Tween 80 at 37° C. under sink conditions. Briefly, an accurately weighed amount of microspheres was suspended in the buffer medium. The suspension was placed in a dialysis bag (MWCO […], Snakeskin™) and then dialyzed against the buffer solution. 1 ml of the release medium was removed at the predetermined time intervals. To maintain the sink condition, an equal volume of the fresh buffer solution was immediately added to the release medium. The concentrations of both lactone and carboxylate forms of CPT in the release media were determined by HPLC assay.

Row | SMILES | stability of standard solution ([1]; at 4° C.) | stability of standard solution ([1]; at room temperature) [h] | ED50 [2] [µg/mL] | ED50 [3] [µg/mL] | T-50 (hrs), dissolution of CPT [4] [h]
1 | CCC(O)(C(=O)O)c1cc2n(c(=O)c1CO)Cc1cc3ccccc3nc1-2 (stereo not shown) [CPT-carboxylate] | two weeks | 24 | – | – | –
2 | CC[C@@]1(O)C(=O)OCc2c1cc1n(c2=O)Cc2cc3ccccc3nc2-1 [Free CPT, 20(S)-camptothecin] | – | – | 0.025 (≈ 0.0718 µM) | 0.75 (≈ 2.15 µM) | 118.6
3 | CC[C@@]1(O)C(=O)OCc2c1cc1n(c2=O)Cc2cc3ccccc3nc2-1 [CPT-lactone] | two weeks | 24 | – | – | –
